Experimental findings from ChEMBL document CHEMBL1201862, “PubChem BioAssay data set” (2004) are described below.

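A five-concentration, 48-hour dose response in 96-well plates underlies each endpoint, interpolated linearly between surrounding concentrations. Abbreviation: GI50, concentration required for 50% inhibition of growth.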 Active and inactive are the calls of the source. No stated cut-off is given here; in the data, active = GI50 up to about 1.1 µM and inactive = higher. A value given as a limit tells only on which side of the number the result lay.

Test systems include 786-0; A549; EKVX; HCC 2998; HL-60; Hs-578T; LOX IMVI; MCF7; NCI-H460; NCI/ADR-RES; OVCAR-3; RXF 393; SF-539; SK-MEL-2; SK-MEL-5; SN12C; SNB-75; SR; SW-620; UO-31.
Assay in all cases: NCI tumour cell line growth inhibition, 48 h

Turning to `CC(=O)Nc1cc(/C=C\C(=O)N2CC(CCl)c3c2cc(N)c2ccccc32)n(C)n1` (stereo not given), the GI50 with 786-0 was 0.00143 µM (active); with A549, 0.00614 µM (active); with EKVX, 0.0251 µM (active); in the assay with HCC 2998, 0.0148 µM (active); in the assay on HL-60 it was < 0.001 µM (active); in the assay on Hs-578T it was 0.0543 µM (active). Besides, the GI50 is 0.00879 µM (active) with LOX IMVI; 0.00204 µM (active) with MCF7; < 0.001 µM (active) in the assay on NCI-H460; 0.0216 µM (active) in the assay on NCI/ADR-RES; 0.0164 µM (active) with OVCAR-3; < 0.001 µM (active) with RXF 393. The GI50 in the assay with SF-539 is 0.00621 µM (active); in the assay on SK-MEL-2 it was 0.0166 µM (active); in the assay with SK-MEL-5, 0.00269 µM (active); in the assay on SN12C it was < 0.001 µM (active); with SNB-75, 0.00165 µM (active); in the assay on SR, < 0.001 µM (active). Also, the figures for the GI50 with SW-620 and in the assay with UO-31 were 0.0123 µM (active) and 0.00284 µM (active), respectively.

As to `CC(=O)O[C@@H]1C(C2CCCCC2)C=[N+]([O-])O[C@@H]1OC1CCCC1(c1ccccc1)c1ccccc1` (stereo not given in full), the GI50 was 3.76 µM (inactive) in the assay with 786-0; 14.8 µM (inactive) with A549; 15.7 µM (inactive) in the assay on EKVX; 8.57 µM (inactive) with HCC 2998; 1.6 µM (inactive) in the assay with HL-60; 11 µM (inactive) in the assay with Hs-578T. The GI50 in the assay with LOX IMVI was 1.94 µM (inactive); in the assay on MCF7, 3.18 µM (inactive); in the assay on NCI-H460 it was 13.3 µM (inactive); with NCI/ADR-RES it was 10.2 µM (inactive); in the assay with OVCAR-3 it was 2.7 µM (inactive); with RXF 393, 2.58 µM (inactive). In addition, the GI50 in the assay with SF-539 was 3.94 µM (inactive); in the assay on SK-MEL-2, 9.91 µM (inactive); in the assay on SK-MEL-5 it was 14.3 µM (inactive); in the assay with SN12C, 9.23 µM (inactive); in the assay on SNB-75, 3.85 µM (inactive); in the assay on SR it was 2.62 µM (inactive). Moreover, the GI50 with SW-620 is 2.04 µM (inactive); with UO-31, 8.09 µM (inactive).

Turning to `CN(C(=O)c1ccc(Cl)s1)C(=S)N(C)C(=O)c1ccc(Cl)s1`, the GI50 in the assay with 786-0, in the assay with A549, in the assay on EKVX, in the assay on HCC 2998, with HL-60 and in the assay on Hs-578T was > 10 µM (inactive) throughout. Besides, the GI50 in the assay on LOX IMVI, in the assay on MCF7, with NCI-H460, with NCI/ADR-RES, in the assay on OVCAR-3 and with RXF 393 was > 10 µM (inactive) throughout. The GI50 in the assay on SF-539, in the assay on SK-MEL-2, in the assay with SK-MEL-5, in the assay with SN12C, with SNB-75 and in the assay with SR was > 10 µM (inactive) throughout. For the same molecule, the GI50 in the assay on SW-620 and with UO-31 was > 10 µM (inactive) in each case.

Turning to `CSc1cc(N)ccc1/N=N/c1ccc(S(N)(=O)=O)cc1`, the GI50 is 26 µM (inactive) in the assay on 786-0; 22.1 µM (inactive) with A549; 31 µM (inactive) with EKVX; 53.6 µM (inactive) in the assay with HCC 2998; 25.1 µM (inactive) with HL-60; 23.5 µM (inactive) with Hs-578T. Besides, the GI50 is 29.6 µM (inactive) with LOX IMVI; 37.3 µM (inactive) in the assay on MCF7; 24.2 µM (inactive) in the assay with NCI-H460; 29.6 µM (inactive) in the assay with NCI/ADR-RES; 25.1 µM (inactive) in the assay on OVCAR-3; 30.5 µM (inactive) with RXF 393. Moreover, the GI50 in the assay on SF-539 was 31.5 µM (inactive); in the assay with SK-MEL-2 it was 24.2 µM (inactive); with SK-MEL-5, 15.3 µM (inactive); in the assay on SN12C, 27.5 µM (inactive); in the assay with SNB-75 it was 15.5 µM (inactive); in the assay with SR it was 34.6 µM (inactive). Besides, the GI50 in the assay with SW-620 was 41.7 µM (inactive); in the assay with UO-31, 16.5 µM (inactive).
